Where a name gives a salt, the structure may show the parent alone. Read-outs that look alike come from different tables or passages of the source.

Test [1] relates to dopamine neurons. Kind of test: Depression of dopamine neuron firing rates by the drug alone. It is filed as in vivo, rats. The conditions noted are these: Rattus norvegicus, iv; for Emax: read-out: MAXIMUM EFFECT (per cent decrease). The procedure:
(§1) Table 2. Dopamine neuron firing rates were recorded according to published procedures and drugs were injected intravenously in chloral hydrate anesthetized rats. A. Ability of drugs to reverse the depression in firing rates of dopamine neurons by 1 to 2 mg/kg amphetamine. The maximum effect is the maximum amount of the amphetamine effect that was reversed, even when doses were increased beyond dose causing maximum effect. An effect greater than 100% indicates excitation of the neuron beyond its' control rate whereas an effect less than 100% indicates partial agonist effects. B. Depression of dopamine neurons by full agonist apomorphine and partial agonists TDHL, (-)PPP and U-64,273A. Maximum effect is maximum depression that could be realized even after increasing doses beyong the dose causing maximum effect. For both A and B, the ED50 is the dose causing 50% of the respective antagonistic (A) or agonist (B) effect.

The next test deals with body temperature. Kind of test: Hypothermia Test (effect on body temperature). The class given is in vivo, CF-1 male mice. Particulars: for ED50: Mus musculus, ip, 0.75 h; for active in either the hypothermic or the apomorphine antogonism test: either test: hypothermic or apomorphine antagonism. The protocol:
(§2) The Effect on Body Temperature (Hypothermia) Test and the Antagonism of Apomorphone-Induced Case Climbing (ACC), (Apomorphine Gnawing Test) are described on page 1398 of the publication, Journal of Medicinal Chemistry, Vol. 22, No. 11, pp. 1390-1398, in an article entitled "6-Aryl-4H-s-triazolo[4,3-a][1,4]benzodiazepines....Action" by J. B. Hester, Jr., et al.
For the tests here, the Hypothermia Test procedure was run as follows:
A group of four CF-1 male mice (18-22 g each) was injected intraperitoneally with the test compound prepared in 0.25 percent w/v methylcellulose in water solution. After 45 min, abdominal temperature of each mouse was measured using a thermister probe. A control group of four mice was treated with vehicle only and the temperature of the control group was taken in a similar manner. A compound was considered to have a significant effect on body temperature if the mean temperature in the test compound treated group deviated more than 3.5°C from the mean temperature of the parallel control group. Stimulants tend to elevate temperatures; depressants tend to lower body temperature.

Test [2] concerns Apomorphone-Induced Case Climbing. Nature of the test: Apomorphine antagonism (Apomorphine gnawing test; apomorphine-induced cage climbing). It is filed as in vivo, Mouse. Particulars: Mus musculus, read-out: Apomor. Antag. ED50.
Description: as §2
Table 3. […] A. Behavioral effects in the rat. B. Behavioral effects in the monkey. C. Doses required to antagonize the indicated behavioral effects of amphetamine. D. Doses required to antagonize the indicated behavioral effects of apomorphine.

The subject of test [3] is dopamine neurons. Kind of test: Reversal of amphetamine depression of dopamine neuron firing rates. The class given is in vivo, rats. The procedure: as §1, with “An effect greater than 100% indicates excitation of the neuron beyond its' control rate whereas an effect less than 100% indicates partial agonist effects.” left out

In general, ED50 refers to the dose at which the effect has come halfway, by size or by number of responders. Take `CCCN1CCC[C@@H](c2cccc(O)c2)C1` [(-)PPP]: in the test on dopamine neurons [1] (Neuron, dose causing 50% of the agonist effect, intravenously, anesthetized rats, read-out: ED50), the ED50 came out at 0.137 mg/kg. The Emax with dopamine neurons [1] (B. depress DA neuron firing rates, intravenously, chloral hydrate anesthetized rats) came to 68%.

Consider `CCCN(CCC)C1Cc2cccc3c(SC)ccc(c23)C1` (stereo not shown) [Example 40, 2,3-Dihydro-N,N-di-n-propyl-6-methylthio-lH-phenalen-2-amine], for which the 50% effective dose (ED50) is 25 mg/kg with body temperature (read-out: Hypothermia ED50) and 12.5 mg/kg in test [2].

As for `CCN(CC)C(=O)N[C@H]1C[C@@H]2c3cccc4[nH]cc(c34)C[C@H]2N(C)C1` [TDHL, trans-dihydrolisuride], the ED50 in the test with dopamine neurons [1] (Neuron) was determined as 0.021 mg/kg; in the test with dopamine neurons [3] (Rattus norvegicus, Neuron, iv) it was 0.132 mg/kg. Besides, the Emax in the test on dopamine neurons [1] (Neuron) is 53%; with dopamine neurons [3] (Rattus norvegicus, Neuron, iv, read-out: MAXIMUM EFFECT (per cent reversal)), 57%.

For “[2-amino-2,3-dihydro-lH-phenalen-6-yl]-a-benzyl ether maleate salt [(49)]”, the “active in either the hypothermic or the apomorphine antogonism test” value in the test on body temperature is “active”.

For the molecule `CN(C)C1Cc2cccc3cccc(c23)C1` [U-65,556, 2,3-dihydro-N,N-dimethyl-lH-phenalen-2-amine], the “reversal of amphetamine's depression of DA neuronal firing (in words)” value in the test on dopamine neurons [3] (intravenous, anesthetized rats) is given as “reversed amphetamine's depressions of DA neurons without causing firing rates to increase over control”.

`CCCN(CCC)C1Cc2cccc3cc(OC(C)=O)cc(c23)C1` (stereo not shown) [(37), [2-(N,N-di-n-propylamino)-2,3-dihydro-lH-phenalen-5-yl]acetate ester]: the “active in either the hypothermic or the apomorphine antogonism test” value in the test with body temperature is “active”.

Turning to `CCCN(CCC)C1Cc2cccc3cc(OC(=O)c4ccccc4)cc(c23)C1` (stereo not shown) [(45), [2-(N,N-di-n-propylamino)-2,3-dihydro-lH-phenalen-5-yl]benzoate ester hydrochloride], in the test on body temperature, the “active in either the hypothermic or the apomorphine antogonism test” value was “active”.

For the molecule “N,N-dimethyl-6-(2-methyl-l,3-dioxan-2-yl)-2,3-dihydro-lH- phenalen-2-amine [(8)]”, the “active in either the hypothermic or the apomorphine antogonism test” value in the test on body temperature is reported as “active”.

In the case of `CCCN(CCC)C1Cc2cccc3cc(OC(=O)C(C)(C)C)cc(c23)C1` (stereo not shown) [(44), 2-(N,N-di-n-propylamino)-2,3-dihydro-lH-phenalen-5-ol, 2,2-dimethylpropyl ester hydrochloride], the “active in either the hypothermic or the apomorphine antogonism test” value in the test with body temperature is recorded as “active”.

In the case of `CNC1Cc2cccc3c(OCc4ccccc4)ccc(c23)C1` (stereo not drawn) [(41), [2-(N-methylamino)-2,3-dihydro-1H-phenalen-6-yi]-α-benzyl-ether p-toluenesulfonate salt monohydrate], in the test on body temperature, the “active in either the hypothermic or the apomorphine antogonism test” value is given as “active”.

Turning to `CN(C)C1Cc2cccc3cccc(c23)C1` [(7), N,N-dimethyl-2,3-dihydro-lH-phenalen-2-amine hydrochloride], the “active in either the hypothermic or the apomorphine antogonism test” value with body temperature is recorded as “active”.

For the molecule “1-[2-(N,N-dimethylamino)-2,3-dihydro-1H-phenalen-y-yl]-ethan-1-ol hydrochloride [(10)]”, the “active in either the hypothermic or the apomorphine antogonism test” value with body temperature is recorded as “active”.

For the molecule `CCCN(CCC)C1Cc2cccc3cc(O)cc(c23)C1` (racemic) [(15), (±)2-(N,N-di-n-propylamino)-2,3-dihydro-lH-phenalen-5-ol], the ED50 in the test with body temperature (read-out: hypothermia, calculated ED50) was 1 mg/kg. For the same molecule, the “active in either the hypothermic or the apomorphine antogonism test” value with body temperature was “active”.

For the molecule `CCCN(CCC)C1Cc2cccc3cc(OC(=O)Cc4ccccc4)cc(c23)C1` (stereo not drawn) [(48), [2-(N,N-di-n-propylamino)-2,3-dihydro-1H-phenalen-5-yl]-α-phenylacetate ester hydrochloride, 0.5 H2O hydrate], the “active in either the hypothermic or the apomorphine antogonism test” value in the test on body temperature is recorded as “active”.

Consider `Cc1ccc2c3c(cccc13)CC(N(C)C)C2` (stereo not shown) [Example 39, part C, 2,3-dihydro-N,N,6-trimethyl-lH-phenalen-2-amine], for which the figures for the 50% effective dose (ED50) (with body temperature (read-out: Hypothermia ED50); in test [2]) were 5.3 mg/kg and 21 mg/kg, respectively.

The values above are taken from patent EP0234113A1, “2,3-Dihydro-1H-phenalene-2-amino compounds as anti-psychotic drugs” (THE UPJOHN COMPANY, priority 1985, dated 1987).
